Results from patent publication US7923442B2, “Glutathione peroxidase mimetics and uses thereof” (UTI Limited Partnership, priority 2005, dated 2011).

Key:
[1] = Catalytic activity of GPx mimetics: reduction of hydrogen peroxide with benzyl thiol
Experimental: (§1) Catalytic activity of the compounds described herein can be determined via assessing the reduction of tert-butyl hydroxyperoxide and hydrogen peroxide with benzyl thiol for example as described in Example 1, herein. According to this embodiment, catalytic activity was compared by means of reaction half-life (t1/2), where the value reflects the time required to oxidize half of the thiol to its disulfide.
(§2) Diselenide 17, selenide 20 and spirodioxyselenurane 25 were prepared by literature procedures. NMR spectra were run in CDCl3 unless otherwise indicated. Chemical shifts for ^77Se and ^125Te NMR spectra are reported relative to dimethyl selenide and dimethyl telluride, respectively (δ 0.00). The spectra were recorded by using diphenyl diselenide in CDCl3 (δ 463 ppm) or selenium dioxide in D2O (δ 1302.6 ppm) for ^77Se NMR spectra, and diphenyl ditelluride in CDCl3 (δ 420.8 ppm) for ^125Te NMR spectra. Benzyl thiol was distilled prior to use and the concentrations of tert-butyl hydroperoxide and hydrogen peroxide were determined by iodometric analysis.
(§3) Glassware used in the measurement of catalytic activity (Example 9) was washed only with water followed by acetone, and was flame-dried prior to use. Contamination with traces of detergent or alkali produced abnormal kinetic results.
(§4) Catalytic activity of some of the compounds synthesized as described the foregoing Examples are described in the tables below, where the activity measured is in terms of comparability to selenoenzyme glutathione peroxidase. Reactions were performed with BnSH (0.029 M), the catalyst (0.0029 M) and either 56% TBHP (0.038 M), 38% TBHP (0.023 M) or 29% H2O2(0.040 M) in CH2Cl2-MeOH (95:5) at 18° C., except for entries 7, 8, 17 and 18, where the solvent was CH2Cl2-MeOH (4:1).

[2] = Catalytic activity of GPx mimetics: overall comparison of catalysts in words (both oxidants); conditions: reduction of peroxides with BnSH; for catalytic activity compared to their selenium analogs 14 and 16: fastest reaction rates
Description: as §1, §4
In general, hydrogen peroxide was reduced faster than tert-butyl hydroperoxide in the presence of the selenium-based catalysts.

[3] = Catalytic activity of GPx mimetics: reduction of tert-butyl hydroperoxide with benzyl thiol
Experimental: as §1, §2, §3, §4

O=[Se]1CCCO1 (stereo not drawn) [Compound 14, reference compound]
t1/2 (h), time required to oxidize half of the thiol to its disulfide [1]: 18 h

C1CO[Se]2(C1)CCCO2 [Compound 16, reference compound]
t1/2 (h), time required to oxidize half of the thiol to its disulfide [1]: 0.2 h

O=[Se]1OCc2ccccc21 (stereo not drawn) [Compound 19, Benzo-1,2-oxaselenolane Se-Oxide]
t1/2 (h), time required to oxidize half of the thiol to its disulfide [1]: 18 h
catalytic activity compared to the parent cyclic seleninate ester 14 and spirodioxyselenurane 16 [2]: inferior catalysts
t1/2 (h), time required to oxidize half of the thiol to its disulfide [3]: 162 h

O=C1O[Se](=O)c2ccccc21 (stereo not drawn) [Compound 22, Benzo-3-oxo-1,2-Oxaselenolane Se-Oxide]
t1/2 (h), time required to oxidize half of the thiol to its disulfide [1]: 73 h
catalytic activity compared to the parent cyclic seleninate ester 14 and spirodioxyselenurane 16 [2]: inferior catalysts
t1/2 (h), time required to oxidize half of the thiol to its disulfide [3]: 252 h

c1ccc2c(c1)CO[Se]21OCc2ccccc21 [Compound 24, Spirodioxyselenurane]
t1/2 (h), time required to oxidize half of the thiol to its disulfide [1]: 5.5 h
catalytic activity compared to the parent cyclic seleninate ester 14 and spirodioxyselenurane 16 [2]: inferior catalysts
t1/2 (h), time required to oxidize half of the thiol to its disulfide [3]: 62 h

O=C1O[Se]2(OC(=O)c3ccccc32)c2ccccc21 [Compound 25, Spirodioxyselenurane, reference compound]
t1/2 (h), time required to oxidize half of the thiol to its disulfide [1]: 35 h
catalytic activity compared to the parent cyclic seleninate ester 14 and spirodioxyselenurane 16 [2]: inferior catalysts
t1/2 (h), time required to oxidize half of the thiol to its disulfide [3]: 113 h

O=[Te]1CCCO1 [Compound 27, 1,2-Oxatellurolane Te-oxide]
catalytic activity compared to their selenium analogs 14 and 16 [2]: superior catalysts

C1CO[Te]2(C1)CCCO2 [Compound 29, Spirodioxytellurane]
catalytic activity compared to their selenium analogs 14 and 16 [2]: superior catalysts

COc1ccc2c(c1)CO[Se]2=O (stereo not drawn) [Compound 91, 5-metboxybenzo-1,2-oxaselenolane Se-oxide]
t1/2 (h), time required to oxidize half of the thiol to its disulfide [1]: 28 h
t1/2 (h), time required to oxidize half of the thiol to its disulfide [3]: 81 h

O=[Se]1OCc2cc(F)ccc21 (stereo not drawn) [Compound 93, 5-fluorobenzo-1,2-oxaselenolane Se-oxide]
melting point: 141 to 142 °C
t1/2 (h), time required to oxidize half of the thiol to its disulfide [1]: 39 h
t1/2 (h), time required to oxidize half of the thiol to its disulfide [3]: 238 h

COc1ccc2c(c1)CO[Se]21OCc2cc(OC)ccc21 [Compound 126, spirodioxyselenurane]
melting point: 171 to 173 °C
t1/2 (h), time required to oxidize half of the thiol to its disulfide [1]: 3.3 h
t1/2 (h), time required to oxidize half of the thiol to its disulfide [3]: 39 h

Fc1ccc2c(c1)CO[Se]21OCc2cc(F)ccc21 [Compound 127, spirodioxyselenurane]
melting point: 189 to 191 °C
t1/2 (h), time required to oxidize half of the thiol to its disulfide [1]: 16 h
t1/2 (h), time required to oxidize half of the thiol to its disulfide [3]: 181 h
